Results: patent publication US5378706A, “Fused-thiazole derivatives active on the cholinergic system, and pharmaceutical compositions containing same” (Sanofi, priority 1987, dated 1995)
Read-outs that look alike come from different tables or passages of the source.

What was measured:
[1] = target: T1, M1 -type muscarinic cholinergic receptor (Rattus norvegicus, UniProt P08482); experiment: biochemical; format: binding; details: for IC50: read-out: IC50 3H-PZ (M1); for ratio R of the IC50 values for the M1 and M2 receptors: selectivity, values correspond to IC50 M2 / IC50 M1
T1 sequence (P08482 1-460): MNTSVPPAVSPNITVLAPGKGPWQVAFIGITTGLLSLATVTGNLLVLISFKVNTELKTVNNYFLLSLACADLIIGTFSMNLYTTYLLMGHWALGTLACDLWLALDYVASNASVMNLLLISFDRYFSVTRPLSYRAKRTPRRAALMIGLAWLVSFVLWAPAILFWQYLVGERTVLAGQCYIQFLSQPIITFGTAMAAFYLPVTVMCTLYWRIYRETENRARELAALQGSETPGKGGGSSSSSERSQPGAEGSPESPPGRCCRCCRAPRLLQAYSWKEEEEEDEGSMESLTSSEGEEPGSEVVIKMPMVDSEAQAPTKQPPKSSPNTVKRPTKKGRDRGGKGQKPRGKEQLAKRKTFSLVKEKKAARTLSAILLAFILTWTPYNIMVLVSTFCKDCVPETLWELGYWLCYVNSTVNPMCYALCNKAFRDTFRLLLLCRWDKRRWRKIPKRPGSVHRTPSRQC
Protocol: The interaction of the molecules with the M1 -type muscarinic receptors was studied by in vitro measurement, on a rat hippocampus homogenate, of the displacement of tritiated pirenzepine from its specific binding sites. Aliquots (10 μl) of a 5% (w/v) rat hippocampus homogenate in an Na2 HPO4 buffer (50 mM, pH 7.40) are incubated for 2 hours at 4° C. in the presence of ^3 H-PZ (76 Ci/mmol; final concentration 1 nM) and increasing concentrations of the test product. The final volume is 2 ml. The reaction is stopped by centrifugation for 10 minutes at 50,000×g. After decantation and washing of the residues, the bound radioactivity is counted by liquid scintillation. The non-specific binding is determined in the presence of 10 μM atropine sulfate.

[2] = target: T2, M2 -type muscarinic cholinergic receptor (Cavia porcellus, UniProt H0VRN8); experiment: Affinity for the M2-type muscarinic cholinergic receptor, displacement of tritiated N-methylscopolamine (3H-NMS) on smooth guinea-pig ileum muscle homogenate; format: binding; details: guinea-pig ileum smooth muscle homogenate, 3H-NMS 0.3 nM, 20 minutes at 30° C., pH 7.5; read-out: IC50 3H-NMS (M2)
T2 construct: on a smooth guinea-pig ileum muscle homogenate; from tissue; host or cells: guinea-pig ileum smooth muscle homogenate
T2 sequence (H0VRN8 1-466): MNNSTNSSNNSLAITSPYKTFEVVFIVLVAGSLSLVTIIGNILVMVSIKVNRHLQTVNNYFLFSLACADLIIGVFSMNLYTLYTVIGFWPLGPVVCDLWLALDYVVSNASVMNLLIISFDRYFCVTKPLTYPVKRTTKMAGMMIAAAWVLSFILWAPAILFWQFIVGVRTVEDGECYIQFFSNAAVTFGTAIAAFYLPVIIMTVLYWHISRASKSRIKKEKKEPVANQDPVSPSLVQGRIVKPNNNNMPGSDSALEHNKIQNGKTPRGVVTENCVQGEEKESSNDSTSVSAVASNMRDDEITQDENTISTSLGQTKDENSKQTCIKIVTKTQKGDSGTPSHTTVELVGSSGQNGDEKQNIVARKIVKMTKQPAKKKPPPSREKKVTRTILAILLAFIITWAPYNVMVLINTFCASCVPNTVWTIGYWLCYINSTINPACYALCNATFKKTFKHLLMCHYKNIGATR
Protocol: The M1 -type receptors are concentrated in certain regions of the brain, such as the hippocampus, the cerebral cortex and the striatum, and also in the sympathetic ganglia. These binding sites can be selectively labeled with tritiated pirenzepine (^3 H-PZ). The M2 -type receptors predominate in the heart and the ileum and can be labeled with tritiated N-methyl-scopolamine (^3 H-NMS). The selectivity of the products of the invention with respect to the M1 and M2 sites was determined by studying their in vitro interaction with ^3 H-PZ and ^3 H-NMS firmly bound with a high affinity to rat hippocampus membranes and smooth guinea-pig ileum muscle, respectively.
The interaction with the M2 -type muscarinic receptors was studied by in vitro measurement, on a smooth guinea-pig ileum muscle homogenate, of the displacement of tritiated N-methylscopolamine from its specific binding sites. […] The final volume is 1 ml. The reaction is stopped by centrifugation for 5 minutes at 15,000×g. The non-specific binding is determined in the presence of 10 mM atropine sulfate.
The IC50 for ^3 H-PZ displacement represents the affinity for the M1 receptor; the IC50 for ^3 H-NMS displacement represents the affinity for the M2 receptor.

[3] = test system: M1 central muscarinic cholinergic receptors; experiment: Antagonism of rotations induced by intrastriatal injection of pirenzepine in mice; format: in vivo, mice (Swiss, CD 1); details: for Pirenzepine antagonism ED50 p.o.: 30 minutes before intrastriatal pirenzepine 1 μg
Protocol: Pirenzepine (PZ) is a specific antagonist of the M1 central muscarinic cholinergic receptors. The intrastriatal injection of PZ into mice induces rotatory behavoir. The antagonism of this behavoir by the products according to the invention was studied.
The products according to the invention are administered either intraperitoneally (i.p.) or orally (p.o.) after solubilization in distilled water or suspension in a 5% solution of gum arabic. The control animals receive the pure solvent under the same conditions.
The animals used are female mice (Swiss, CD 1, Charles River, France) with a body weight of between 25 and 30 grams.
The pirenzepine is dissolved in a phosphate buffer and the pH of the solution is 6.
The test products or their solvents are administered in a volume of 0.4 ml per 20 g of body weight, either by i.p. injection or orally via an esophageal tube.
The number of contralateral rotations (rotations in the opposite direction to the side injected) was counted for three 2-minute periods after injection of the pirenzepine: 2nd to 4th, 8th to 10th and 13th to 15th minutes. Each treatment consists of 3 to 4 doses and 10 animals per dose. The total number of rotations and the percentage antagonism with respect to the control group are calculated for each treatment.

[4] = rat hippocampus homogenate, 3H-PZ 1 nM, 2 hours at 4° C., pH 7.40

| IC50 [1, 4] [µM] | ratio R of the IC50 values for the M1 and M2 receptors [1] | IC50 [2] [µM] | SMILES | Pirenzepine antagonism ED50 p.o. [3] [mg/kg] | IC50 [1] [µM] | Pirenzepine antagonism ED50 i.p. ([3]; i.p., 15 minutes before intrastriatal pirenzepine 1 μg) [mg/kg] |
| --- | --- | --- | --- | --- | --- | --- |
| 0.8 | 100 | 80 | CN(C)CCCNc1nc(-c2ccc(F)cc2)cs1 [SR 44494 A] | 2 |  |  |
| 1.8 | 7 | 13 | CCN(CC)CCCNc1nc(-c2ccc3ccccc3c2)cs1 [SR 44573 A] | 2.50 |  |  |
| 1.8 | 14 | 26 | CN(C)CCCNc1nc(-c2ccc(Cl)cc2Cl)cs1 [SR 44749 A] | 3 |  |  |
| 0.6 | 43 | 26 | CN(C)CCCNc1nc(-c2ccc(F)cc2F)cs1 [SR 44770 A] | 3 |  |  |
| 0.4 | 250 | 100 | Cc1cc(C)c(-c2csc(NCc3cccnc3)n2)c(C)c1 [SR 44839 A] | 0.2 |  |  |
| 0.3 | > 300 | > 100 | Cc1cc(C)c(-c2csc(NCCc3ccncc3)n2)c(C)c1 [SR 44856 A] | 3 |  |  |
| 3 | 11 | 34 | CN1CCN(CCCNc2nc(-c3ccc(F)cc3)cs2)CC1 [SR 44862 A] | 3 |  |  |
| 0.4 | 100 | 40 | Cc1cc(C)c(-c2csc(NCCCN3CCN(C)CC3)n2)c(C)c1 [SR 44915 A] | 3 |  |  |
| 0.9 | 31 | 28 | Cc1cc(C)c(-c2csc(NCCCN3CCCC3)n2)c(C)c1 [SR 44964 A] | 3 |  |  |
| 1.2 | 50 | 60 | CCN1CCCC(Nc2nc(-c3c(C)cc(C)cc3C)cs2)C1 (stereo not drawn) [SR 44965 A] | 3 |  |  |
| 2.6 | 11 | 30 | Cc1ccccc1-c1csc(NCCCN(C)C)n1 [SR 45001 A] | 3 |  |  |
| 0.3 | 13 | 4 | CN(C)CCCNc1nc(-c2ccccc2)c(-c2ccccc2)s1 [SR 45015 A] | 0.70 |  |  |
| 0.1 | 55 | 5.5 | CN(C)CCCNc1nc(Cc2ccccc2)c(-c2ccccc2)s1 [SR 45016 A] | 2 |  |  |
| 1.6 | 50 | 80 | CNCCCNc1nc(-c2c(C)cc(C)cc2C)cs1 [SR 45030 A] | 1 |  |  |

| SMILES | IC50 [1, 4] [µM] | ratio R of the IC50 values for the M1 and M2 receptors [1] | IC50 [2] [µM] | Pirenzepine antagonism ED50 p.o. [3] [mg/kg] | IC50 [1] [µM] | Pirenzepine antagonism ED50 i.p. ([3]; i.p., 15 minutes before intrastriatal pirenzepine 1 μg) [mg/kg] |
| --- | --- | --- | --- | --- | --- | --- |
| Cc1sc(NCCCN)nc1-c1ccccc1.Cl.Cl [SR 44514 A, 2-[(3-Aminopropyl)amino]-5-methyl-4-phenylthiazole dihydrochloride] |  | > 200 | > 100 |  | 0.5 | 3 |
